Test results from patent US20260265208A1, “TETRALINE, PHENYLCYCLOBUTANE AND PHENYLCYCLOPENTANE ANALOGS AS RXFP1 AGONISTS” (BRISTOL-MYERS SQUIBB COMPANY, priority 2021, published 2026).

Molecular target: T1, human RXFP1 (Homo sapiens, UniProt Q9HBX9)
T1 construct: expressed in transfected cells
T1 sequence (Q9HBX9 1-757): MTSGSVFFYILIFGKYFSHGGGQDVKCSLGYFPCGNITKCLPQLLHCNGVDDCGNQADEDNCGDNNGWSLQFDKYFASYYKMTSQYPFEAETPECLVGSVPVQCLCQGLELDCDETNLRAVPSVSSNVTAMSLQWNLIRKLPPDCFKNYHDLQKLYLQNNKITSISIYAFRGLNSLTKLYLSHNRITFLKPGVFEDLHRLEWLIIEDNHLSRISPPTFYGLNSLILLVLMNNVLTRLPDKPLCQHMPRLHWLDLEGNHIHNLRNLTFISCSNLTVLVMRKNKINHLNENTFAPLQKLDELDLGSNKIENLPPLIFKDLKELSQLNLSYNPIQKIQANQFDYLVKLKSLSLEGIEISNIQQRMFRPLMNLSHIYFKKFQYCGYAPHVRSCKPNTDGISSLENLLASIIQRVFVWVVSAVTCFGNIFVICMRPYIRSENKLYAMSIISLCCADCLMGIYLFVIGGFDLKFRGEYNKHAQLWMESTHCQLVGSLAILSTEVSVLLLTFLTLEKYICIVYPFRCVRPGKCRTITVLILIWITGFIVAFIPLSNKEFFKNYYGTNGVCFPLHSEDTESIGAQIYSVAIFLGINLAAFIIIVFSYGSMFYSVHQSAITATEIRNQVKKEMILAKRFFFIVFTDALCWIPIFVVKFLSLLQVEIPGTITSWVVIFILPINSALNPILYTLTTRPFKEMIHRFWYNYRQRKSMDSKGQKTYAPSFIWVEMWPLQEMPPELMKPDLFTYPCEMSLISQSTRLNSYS
Assay: hRXFP1 HEK293 cAMP assay (HTRF)
Type: cell-based
Settings: HEK293 cells stably expressing human RXFP1; phenylcyclobutane examples
Method: RXFP1 Cyclic Adenosine Monophosphate (cAMP) Assays. Human embryonic kidney cells 293 (HEK293) cells and HEK293 cells stably expressing human RXFP1, were cultured in MEM medium supplemented with 10% qualified FBS, and 300 μg/ml hygromycin (Life Technologies). Cells were dissociated and suspended in assay buffer. The assay buffer was HBSS buffer (with calcium and magnesium) containing 20 mM HEPES, 0.05% BSA, and 0.5 mM IBMX. Cells (3000 cells per well, except 1500 cell per well for HEK293 cells stably expressing human RXFP1) were added to 384-well Proxiplates (Perkin-Elmer). Cells were immediately treated with test compounds in DMSO (2% final) at final concentrations in the range of 0.010 nM to 50 μM. Cells were incubated for 30 min at room temperature. The level of intracellular cAMP was determined using the HTRF HiRange cAMP assay reagent kit (Cisbio) according to manufacturer's instructions. Solutions of cryptate conjugated anti-cAMP and d2 fluorophore-labelled cAMP were made in a supplied lysis buffer separately. Upon completion of the reaction, the cells were lysed with equal volume of the d2-cAMP solution and anti-cAMP solution. After a 1 h room temperature incubation, time-resolved fluorescence intensity was measured using the Envision (Perkin-Elmer) at 400 nm excitation and dual emission at 590 nm and 665 nm. A calibration curve was constructed with an external cAMP standard at concentrations ranging from 2.7 μM to 0.1 μM by plotting the fluorescent intensity ratio from 665 nm emission to the intensity from the 590 nm emission against cAMP concentrations. The potency and activity of a compound to […] cAMP production was then determined by fitting to a 4-parametric logistic equation from a plot of cAMP level versus compound concentrations.
The examples disclosed below were tested in the human RXFP1 (hRXFP1) HEK293 cAMP assay described above and found to have agonist activity. Tables 1-3, lists EC50 values in the hRXFP1 HEK293 cAMP assay measured for the examples.

SMILES | EC50 [nM]
COc1ccc(-c2cc(C(=O)O)ccc2F)cc1C(=O)Nc1cc2c(cc1C(=O)Nc1ccc(F)c(C(F)(F)F)c1)CC2 [Example 21] | 2400
COc1ccc(-c2cc(C(NC(=O)C3CCOCC3)C(=O)O)ccc2F)cc1C(=O)Nc1cc2c(cc1C(=O)Nc1ccc(F)c(C(F)(F)F)c1)CC2 (centres unmarked) [Example 22, 2-(6-fluoro-3′-((4-((4-fluoro-3-(trifluoromethyl)phenyl)carbamoyl)bicyclo[4.2.0]octa-1,3,5-trien-3-yl)carbamoyl)-4′-methoxy-[1,1′-biphenyl]-3-yl)-2-(tetrahydro-2H-pyran-4-carboxamido)acetic acid] | 8

Same assay, conditions: HEK293 cells stably expressing human RXFP1; phenylcyclohexyl (tetraline) examples

SMILES | EC50 [nM]
COc1ccc(C2=NOC3CC(CO)CC23)cc1C(=O)Nc1cc2c(cc1C(=O)Nc1ccc(F)c(C(F)(F)F)c1)CCCC2 (single isomer, unassigned) [Example 14, N-(4-fluoro-3-(trifluoromethyl)phenyl)-3-(5-(5-(hydroxymethyl)-3a,5,6,6a-tetrahydro-4H-cyclopenta[d]-isoxazol-3-yl)-2-methoxybenzamido)-5,6,7,8-tetrahydronaphthalene-2-carboxamide] | 82
COc1ccc(N2CCCS2(=O)=O)cc1C(=O)Nc1cc2c(cc1C(=O)Nc1ccc(F)c(C(F)(F)F)c1)CCCC2 [Example 20, 3-(5-(1,1-dioxidoisothiazolidin-2-yl)-2-methoxybenzamido)-N-(4-fluoro-3-(trifluoromethyl)-phenyl)-5,6,7,8-tetrahydronaphthalene-2-carboxamide] | 2200
COc1ccc(-c2cc(C(NC(=O)C3CCOCC3)C(=O)O)ccc2F)cc1C(=O)Nc1cc2c(cc1C(=O)Nc1ccc(F)c(C(F)(F)F)c1)CCCC2 (single isomer, unassigned) [Example 2, 2-(6-fluoro-3′-((3-((4-fluoro-3-(trifluoromethyl)phenyl)carbamoyl)-5,6,7,8-tetrahydro-naphthalen-2-yl)carbamoyl)-4′-methoxy-[1,1′-biphenyl]-3-yl)-2-(tetrahydro-2H-pyran-4-carboxamido)acetic acid] | 1.8
COc1ccc(-c2cc([C@H](OC(=O)Nc3ccccc3)C(F)(F)F)ccc2F)cc1C(=O)Nc1cc2c(cc1C(=O)Nc1ccc(F)c(C(F)(F)F)c1)CCCC2 [Example 5, (S)-2,2,2-trifluoro-1-(6-fluoro-3′-((3-((4-fluoro-3-(trifluoromethyl)phenyl)carbamoyl)-5,6,7,8-tetrahydronaphthalen-2-yl)carbamoyl)-4′-methoxy-[1,1′-biphenyl]-3-yl)ethyl phenylcarbamate] | 33
COc1ccc(C2=NOC3CC(CO)CC23)cc1C(=O)Nc1cc2c(cc1C(=O)Nc1ccc(F)c(C(F)(F)F)c1)CCCC2 (single isomer, unassigned) [Example 13, N-(4-fluoro-3-(trifluoromethyl)phenyl)-3-(5-(5-(hydroxymethyl)-3a,5,6,6a-tetrahydro-4H-cyclopenta[d]-isoxazol-3-yl)-2-methoxybenzamido)-5,6,7,8-tetrahydronaphthalene-2-carboxamide] | 19
COc1ccc(-c2cc([C@H](OC(=O)NC3CC(F)(F)C3)C(F)(F)F)ccc2F)cc1C(=O)Nc1cc2c(cc1C(=O)Nc1ccc(F)c(C(F)(F)F)c1)CCCC2 [Example 7, (S)-2,2,2-trifluoro-1-(6-fluoro-3′-((3-((4-fluoro-3-(trifluoro-methyl)phenyl)carbamoyl)-5,6,7,8-tetra-hydronaphthalen-2-yl)carbamoyl)-4′-methoxy-[1,1′-biphenyl]-3-yl)ethyl (3,3-difluorocyclo-butyl)carbamate] | 62
COc1ccc(-c2cnn(CC(=O)O)c2)cc1C(=O)Nc1cc2c(cc1C(=O)Nc1ccc(F)c(C(F)(F)F)c1)CCCC2 [Example 19, 2-(4-(3-((3-((4-fluoro-3-(trifluoromethyl)phenyl)carbamoyl)-5,6,7,8-tetrahydronaphthalen-2-yl)carbamoyl)-4-methoxyphenyl)-1H-pyrazol-1-yl)acetic acid] | 1300
COc1ccc(-c2noc(CCO)c2CCO)cc1C(=O)Nc1cc2c(cc1C(=O)Nc1ccc(F)c(C(F)(F)F)c1)CCCC2 [Example 16, 3-(5-(4,5-bis(2-hydroxyethyl)isoxazol-3-yl)-2-methoxybenzamido)-N-(4-fluoro-3-(trifluoromethyl)phenyl)-5,6,7,8-tetrahydronaphthalene-2-carboxamide] | 5000
COc1ccc(-c2cc([C@H](OC(=O)NC3CCC3)C(F)(F)F)ccc2F)cc1C(=O)Nc1cc2c(cc1C(=O)Nc1ccc(F)c(C(F)(F)F)c1)CCCC2=O [Example 17, (S)-2,2,2-trifluoro-1-(6-fluoro-3′-((3-(4-fluoro-3-(trifluoromethyl)phenyl)carbamoyl)-8-oxo-5,6,7,8-tetrahydronaphthalen-2-yl)carbamoyl)-4′-methoxy-[1,1′-biphenyl]-3-yl)ethyl cyclobutylcarbamate] | 22
COc1ccc(-c2cc([C@H](O)C(F)(F)F)ccc2F)cc1C(=O)Nc1cc2c(cc1C(=O)Nc1ccc(F)c(C(F)(F)F)c1)CCCC2 [Example 4, (S)—N-(4-fluoro-3-(trifluoromethyl)phenyl)-3-(2′-fluoro-4-methoxy-5′-(2,2,2-trifluoro-1-hydroxyethyl)-[1,1′-biphenyl]-3-carboxamido)-5,6,7,8-tetrahydronaphthalene-2-carboxamide] | 860
COc1ccc(-c2cc(C(=O)O)ccc2F)cc1C(=O)Nc1cc2c(cc1C(=O)Nc1ccc(F)c(C(F)(F)F)c1)CCCC2=O [Example 18, 6-fluoro-3′-((3-((4-fluoro-3-(trifluoromethyl)phenyl)carbamoyl)-8-oxo-5,6,7,8-tetrahydronaphthalen-2-yl)carbamoyl)-4′-methoxy-[1,1′-biphenyl]-3-carboxylic acid] | 1100

Same assay, conditions: HEK293 cells stably expressing human RXFP1; phenylcyclopentyl examples

SMILES | EC50 [nM]
COc1ccc(C2=NOC3CC(CO)CC23)cc1C(=O)Nc1cc2c(cc1C(=O)Nc1ccc(F)c(C(F)(F)F)c1)CCC2=O (single isomer, unassigned) [Example 27, N-(4-fluoro-3-(trifluoromethyl)phenyl)-6-(5-(5-(hydroxymethyl)-3a,5,6,6a-tetrahydro-4H-cyclopenta[d]isoxazol-3-yl)-2-methoxybenzamido)-1-oxo-2,3-dihydro-1H-indene-5-carboxamide] | 34
COc1ccc(-c2cc(C(=O)O)ccc2F)cc1C(=O)Nc1cc2c(cc1C(=O)Nc1ccc(F)c(C(F)(F)F)c1)CCC2=O [Example 26, 6-fluoro-3′-((6-((4-fluoro-3-(trifluoromethyl)phenyl)carbamoyl)-3-oxo-2,3-dihydro-1H-inden-5-yl)carbamoyl)-4′-methoxy-[1,1′-biphenyl]-3-carboxylic acid] | 230
COc1ccc(-c2cc(C(=O)O)ccc2F)cc1C(=O)Nc1cc2c(cc1C(=O)Nc1ccc(F)c(C(F)(F)F)c1)CCC2O (racemic) [Example 29, 6-fluoro-3′-((6-((4-fluoro-3-(trifluoromethyl)phenyl)carbamoyl)-3-hydroxy-2,3-dihydro-1H-inden-5-yl)carbamoyl)-4′-methoxy-[1,1′-biphenyl]-3-carboxylic acid] | 2700
COc1ccc(-c2cc(C(NC(=O)C3CCOCC3)C(=O)O)ccc2F)cc1C(=O)Nc1cc2c(cc1C(=O)Nc1ccc(F)c(C(F)(F)F)c1)CCC2 (centres unmarked) [Example 25, 2-(6-fluoro-3′-((6-((4-fluoro-3-(trifluoromethyl)phenyl)carbamoyl)-2,3-dihydro-1H-inden-5-yl)carbamoyl)-4′-methoxy-[1,1′-biphenyl]-3-yl)-2-(tetrahydro-2H-pyran-4-carboxamido)acetic acid] | 11
